Results taken from publication PMC9005681, “Use of AD Informer Set compounds to explore validity of novel targets in Alzheimer's disease pathology” (Alzheimer's & Dementia : Translational Research & Clinical …, 2022).
“And” between values parts separate entries of the source, which are not always exact repeats. Identical values can stand only once.

Experiments:
Experiment in all cases: PDSP GPCR panel primary binding assays at 10 μM
Conditions in all cases: primary assay
[1] = biological target: T1, cloned human or rodent CNS receptors, channels, and transporters (PDSP panel) (Homo sapiens, UniProt P08912)
T1 construct: expressed in transfected cells
T1 sequence (P08912 1-532): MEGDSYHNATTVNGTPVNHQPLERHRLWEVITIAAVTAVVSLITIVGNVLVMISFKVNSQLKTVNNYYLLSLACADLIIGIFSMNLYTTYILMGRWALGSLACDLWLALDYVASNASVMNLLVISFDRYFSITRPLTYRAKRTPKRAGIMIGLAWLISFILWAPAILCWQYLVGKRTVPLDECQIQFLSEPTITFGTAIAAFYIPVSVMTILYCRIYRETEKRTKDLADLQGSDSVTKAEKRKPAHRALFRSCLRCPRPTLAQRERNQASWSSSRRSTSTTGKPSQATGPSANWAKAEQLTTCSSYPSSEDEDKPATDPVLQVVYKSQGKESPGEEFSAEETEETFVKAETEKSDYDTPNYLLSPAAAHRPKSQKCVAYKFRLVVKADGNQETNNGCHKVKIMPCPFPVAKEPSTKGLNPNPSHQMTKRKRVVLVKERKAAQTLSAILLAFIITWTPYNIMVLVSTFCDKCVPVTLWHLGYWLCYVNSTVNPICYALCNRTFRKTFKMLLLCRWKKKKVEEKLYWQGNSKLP
Procedure, shortened: (§1)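 PDSP panel of 46–47 cloned human or rodent CNS receptors, channels and transporters; radioligand displacement by compound at 10 μM, in quadruplicate. Where average displacement exceeded 50%, secondary binding followed as 11-point dose-response in triplicate (none for H3, PBR or GABAA).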

[2] = biological target: T2, cloned human or rodent CNS receptors, channels, and transporters (PDSP panel) (Homo sapiens, UniProt P21917)
T2 construct: expressed in transfected cells
T2 sequence (P21917 1-419): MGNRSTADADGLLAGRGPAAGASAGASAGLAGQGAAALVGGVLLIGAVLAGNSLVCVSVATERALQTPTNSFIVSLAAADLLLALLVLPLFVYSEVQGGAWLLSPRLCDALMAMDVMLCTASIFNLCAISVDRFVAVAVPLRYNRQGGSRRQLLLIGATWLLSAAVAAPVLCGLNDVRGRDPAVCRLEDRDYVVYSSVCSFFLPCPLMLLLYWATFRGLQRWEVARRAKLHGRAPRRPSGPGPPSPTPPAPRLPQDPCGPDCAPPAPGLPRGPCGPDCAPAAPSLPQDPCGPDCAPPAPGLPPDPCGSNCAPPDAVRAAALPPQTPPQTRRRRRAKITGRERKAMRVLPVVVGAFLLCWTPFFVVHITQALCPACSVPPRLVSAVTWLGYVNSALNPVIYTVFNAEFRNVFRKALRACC
Procedure, shortened: as §1

[3] = biological target: T3, cloned human or rodent CNS receptors, channels, and transporters (PDSP panel) (Homo sapiens, UniProt P28335)
T3 construct: expressed in transfected cells
T3 sequence (P28335 33-458): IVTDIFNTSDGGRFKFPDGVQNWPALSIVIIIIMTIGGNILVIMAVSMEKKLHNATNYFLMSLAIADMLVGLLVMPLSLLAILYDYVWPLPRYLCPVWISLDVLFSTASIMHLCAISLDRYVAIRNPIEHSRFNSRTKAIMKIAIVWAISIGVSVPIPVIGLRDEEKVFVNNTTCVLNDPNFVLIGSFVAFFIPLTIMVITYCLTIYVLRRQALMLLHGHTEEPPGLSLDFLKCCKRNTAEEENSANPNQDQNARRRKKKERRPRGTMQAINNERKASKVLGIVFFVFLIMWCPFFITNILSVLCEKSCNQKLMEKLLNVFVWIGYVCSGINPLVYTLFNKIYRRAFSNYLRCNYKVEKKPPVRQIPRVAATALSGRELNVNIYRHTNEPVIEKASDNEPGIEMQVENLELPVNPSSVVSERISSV
Procedure, shortened: as §1

[4] = biological target: T4, cloned human or rodent CNS receptors, channels, and transporters (PDSP panel) (Homo sapiens, UniProt P31645)
T4 construct: expressed in transfected cells
Procedure, shortened: as §1

[5] = biological target: T5, cloned human or rodent CNS receptors, channels, and transporters (PDSP panel) (Homo sapiens, UniProt P35368)
T5 construct: expressed in transfected cells
T5 sequence (P35368 1-520): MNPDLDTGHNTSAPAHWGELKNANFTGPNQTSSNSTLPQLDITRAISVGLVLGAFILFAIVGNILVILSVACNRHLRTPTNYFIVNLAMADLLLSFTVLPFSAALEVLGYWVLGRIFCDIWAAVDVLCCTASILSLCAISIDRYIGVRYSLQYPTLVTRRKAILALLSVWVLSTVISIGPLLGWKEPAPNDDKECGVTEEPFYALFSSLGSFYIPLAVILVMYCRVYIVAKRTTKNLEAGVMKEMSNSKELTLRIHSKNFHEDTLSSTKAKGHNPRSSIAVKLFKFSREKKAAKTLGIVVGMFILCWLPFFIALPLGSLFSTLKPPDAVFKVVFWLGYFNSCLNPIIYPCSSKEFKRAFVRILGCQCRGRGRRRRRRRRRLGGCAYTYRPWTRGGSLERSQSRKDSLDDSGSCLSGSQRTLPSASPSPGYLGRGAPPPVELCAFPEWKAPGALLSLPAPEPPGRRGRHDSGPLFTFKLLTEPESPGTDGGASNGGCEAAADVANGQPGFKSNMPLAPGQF
Procedure, shortened: as §1

[6] = biological target: T6, cloned human or rodent CNS receptors, channels, and transporters (PDSP panel) (Homo sapiens, UniProt P35462)
T6 construct: expressed in transfected cells
Procedure, shortened: as §1

T4 sequence (P31645 whole entry): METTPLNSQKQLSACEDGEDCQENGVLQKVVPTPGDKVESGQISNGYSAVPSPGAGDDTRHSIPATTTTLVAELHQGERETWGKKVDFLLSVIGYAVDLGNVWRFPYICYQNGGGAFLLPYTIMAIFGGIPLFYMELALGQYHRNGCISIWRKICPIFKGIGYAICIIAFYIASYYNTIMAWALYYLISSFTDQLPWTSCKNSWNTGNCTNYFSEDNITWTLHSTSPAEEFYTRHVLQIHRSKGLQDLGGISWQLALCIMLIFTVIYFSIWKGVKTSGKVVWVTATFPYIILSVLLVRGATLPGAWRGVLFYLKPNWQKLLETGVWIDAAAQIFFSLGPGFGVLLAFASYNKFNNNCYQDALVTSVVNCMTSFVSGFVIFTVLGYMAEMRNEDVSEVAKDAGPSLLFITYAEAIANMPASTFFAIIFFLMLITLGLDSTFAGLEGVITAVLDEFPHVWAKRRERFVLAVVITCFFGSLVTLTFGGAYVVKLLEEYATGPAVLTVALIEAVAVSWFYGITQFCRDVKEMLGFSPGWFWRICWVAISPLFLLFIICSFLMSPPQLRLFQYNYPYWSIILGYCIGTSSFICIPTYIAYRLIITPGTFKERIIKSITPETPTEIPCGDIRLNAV
T6 sequence (P35462 whole entry): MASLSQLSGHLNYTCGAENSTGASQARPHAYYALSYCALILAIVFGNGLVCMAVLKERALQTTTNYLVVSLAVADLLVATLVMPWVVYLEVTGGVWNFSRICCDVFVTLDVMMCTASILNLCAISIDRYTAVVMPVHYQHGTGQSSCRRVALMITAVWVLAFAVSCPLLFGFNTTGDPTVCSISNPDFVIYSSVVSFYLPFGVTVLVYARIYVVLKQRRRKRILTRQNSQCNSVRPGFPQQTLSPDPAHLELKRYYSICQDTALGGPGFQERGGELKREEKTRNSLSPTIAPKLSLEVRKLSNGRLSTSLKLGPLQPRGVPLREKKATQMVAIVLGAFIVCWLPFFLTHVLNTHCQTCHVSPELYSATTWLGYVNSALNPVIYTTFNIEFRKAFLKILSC

**Q.** With `Cl.NC(=O)c1cnc(N[C@@H]2CCCC[C@@H]2N)nc1Nc1cccc(-n2nccn2)c1` [UNC10302682A, P505-15 (PRT06207 HCl)] as the molecule, how does the “Inhibition 1” value ([1]; Receptor M5, 10 μM) read?
**A.** 25.92%

**Q.** And the “Inhibition 2” value ([1]; Receptor M5, 10 μM)?
**A.** 13.95%

**Q.** What about the “Inhibition 3” value ([1]; Receptor M5, 10 μM) of the same molecule?
**A.** 6.2%

**Q.** What about the “Inhibition 4” value ([1]; Receptor M5, 10 μM) of the same molecule?
**A.** -1.55%

**Q.** What about the Mean % ([1]; Receptor M5, 10 μM, mean of Inhibition 1-4) of the same molecule?
**A.** 11.13%

**Q.** And the “Inhibition 1” value ([2]; Receptor D4, 10 μM)?
**A.** 7.46%

**Q.** And the “Inhibition 2” value ([2]; Receptor D4, 10 μM)?
**A.** 12.14%

**Q.** And the “Inhibition 3” value ([2]; Receptor D4, 10 μM)?
**A.** 13.58%

**Q.** And the “Inhibition 4” value ([2]; Receptor D4, 10 μM)?
**A.** 14.53%

**Q.** What about the Mean % ([2]; Receptor D4, 10 μM, mean of Inhibition 1-4) of the same molecule?
**A.** 11.93%

**Q.** And the “Inhibition 1” value ([3]; Receptor 5-HT2C, 10 μM)?
**A.** 78.04%

**Q.** And the “Inhibition 2” value ([3]; Receptor 5-HT2C, 10 μM)?
**A.** 64.79%

**Q.** What about the “Inhibition 3” value ([3]; Receptor 5-HT2C, 10 μM) of the same molecule?
**A.** 67.73%

**Q.** And the “Inhibition 4” value ([3]; Receptor 5-HT2C, 10 μM)?
**A.** 44.66%

**Q.** What about the Mean % ([3]; Receptor 5-HT2C, 10 μM, mean of Inhibition 1-4) of the same molecule?
**A.** 63.81%

**Q.** And the “Inhibition 2” value ([4]; Receptor SERT, 10 μM)?
**A.** 8.4% and 8.39%

**Q.** And the “Inhibition 3” value ([4]; Receptor SERT, 10 μM)?
**A.** 11.88% and 10.26%

**Q.** And the “Inhibition 4” value ([4]; Receptor SERT, 10 μM)?
**A.** 20.53% and 20.37%

**Q.** What about the Mean % ([4]; Receptor SERT, 10 μM, mean of Inhibition 1-4) of the same molecule?
**A.** 14.96% and 10.68%

**Q.** What about the “Inhibition 1” value ([5]; Receptor Alpha1B, 10 μM) of the same molecule?
**A.** 60.7%

**Q.** What about the “Inhibition 2” value ([5]; Receptor Alpha1B, 10 μM) of the same molecule?
**A.** 57.49%

**Q.** What about the “Inhibition 3” value ([5]; Receptor Alpha1B, 10 μM) of the same molecule?
**A.** 49.58%

**Q.** And the “Inhibition 4” value ([5]; Receptor Alpha1B, 10 μM)?
**A.** 52.45%

**Q.** And the Mean % ([5]; Receptor Alpha1B, 10 μM, mean of Inhibition 1-4)?
**A.** 55.06%

**Q.** What about the “Inhibition 1” value ([6]; Receptor D3, 10 μM) of the same molecule?
**A.** 15.21%

**Q.** And the “Inhibition 2” value ([6]; Receptor D3, 10 μM)?
**A.** 7.11%

**Q.** And the “Inhibition 3” value ([6]; Receptor D3, 10 μM)?
**A.** 21.57%

**Q.** What about the “Inhibition 4” value ([6]; Receptor D3, 10 μM) of the same molecule?
**A.** 8.07%

**Q.** What about the Mean % ([6]; Receptor D3, 10 μM, mean of Inhibition 1-4) of the same molecule?
**A.** 12.99%

**Q.** How did the Mean % ([1]; M5, mean inhibition) turn out when `CCC(=O)N1CCC(NC(=O)Nc2ccc(OC(F)(F)F)cc2)CC1` [UNC10302681A, TPPU] was run?
**A.** -2.23%

**Q.** What about the “Inhibition 1” value ([1]; M5, replicate 1) of the same molecule?
**A.** 18.08%

**Q.** And the “Inhibition 2” value ([1]; M5, replicate 2)?
**A.** -1.14%

**Q.** What about the “Inhibition 3” value ([1]; M5, replicate 3) of the same molecule?
**A.** -10.91%

**Q.** And the “Inhibition 4” value ([1]; M5, replicate 4)?
**A.** -14.93%

**Q.** And the Mean % ([2]; D4, mean inhibition)?
**A.** 5.93%

**Q.** And the “Inhibition 1” value ([2]; D4, replicate 1)?
**A.** 5.07%

**Q.** And the “Inhibition 2” value ([2]; D4, replicate 2)?
**A.** 3.44%

**Q.** And the “Inhibition 3” value ([2]; D4, replicate 3)?
**A.** 0%

**Q.** What about the “Inhibition 4” value ([2]; D4, replicate 4) of the same molecule?
**A.** 15.2%

**Q.** And the Mean % ([3]; 5-HT2C, mean inhibition)?
**A.** -8.1%

**Q.** And the “Inhibition 1” value ([3]; 5-HT2C, replicate 1)?
**A.** 3.44%

**Q.** What about the “Inhibition 2” value ([3]; 5-HT2C, replicate 2) of the same molecule?
**A.** -10.8%

**Q.** What about the “Inhibition 3” value ([3]; 5-HT2C, replicate 3) of the same molecule?
**A.** -1.96%

**Q.** What about the “Inhibition 4” value ([3]; 5-HT2C, replicate 4) of the same molecule?
**A.** -23.07%

**Q.** And the “Inhibition 1” value ([4]; SERT, replicate 1)?
**A.** 16.43% and 21.37%

**Q.** What about the “Inhibition 2” value ([4]; SERT, replicate 2) of the same molecule?
**A.** -9.69% and 21.48%

**Q.** And the “Inhibition 3” value ([4]; SERT, replicate 3)?
**A.** 7.05% and 21.19%

**Q.** What about the “Inhibition 4” value ([4]; SERT, replicate 4) of the same molecule?
**A.** 4.97% and 21.78%

**Q.** What about the Mean % ([5]; Alpha1B, mean inhibition) of the same molecule?
**A.** 7.22%

**Q.** And the “Inhibition 1” value ([5]; Alpha1B, replicate 1)?
**A.** 0.2%

**Q.** And the “Inhibition 2” value ([5]; Alpha1B, replicate 2)?
**A.** 16.24%

**Q.** And the “Inhibition 3” value ([5]; Alpha1B, replicate 3)?
**A.** 7.3%

**Q.** And the “Inhibition 4” value ([5]; Alpha1B, replicate 4)?
**A.** 5.13%

**Q.** And the Mean % ([6]; D3, mean inhibition)?
**A.** -4.85%

**Q.** What about the “Inhibition 1” value ([6]; D3, replicate 1) of the same molecule?
**A.** -1.18%

**Q.** And the “Inhibition 2” value ([6]; D3, replicate 2)?
**A.** -5.62%

**Q.** And the “Inhibition 3” value ([6]; D3, replicate 3)?
**A.** -5.04%

**Q.** And the “Inhibition 4” value ([6]; D3, replicate 4)?
**A.** -7.54%
